This note sets out measurements from US20240002407A1, “THIENOPYRIMIDINONE DERIVATIVES” (Hoffmann-La Roche Inc., priority 2021, published 2024).

The subject of this experiment is mutant HTT protein (mHTT). The experiment is described as follows: Homogeneous Time Resolved Fluorescence (HTRF) assay for HTT lowering in GENEAe020-A cells. It counts as cell-based. The conditions noted are these: reduction of mHTT; Huntington patient human cells (GENEAe020-A cell line); 48 hours incubation; mean from three replicates. As for the experimental part: The HTRF assay was adapted from Weiss et al. (Analytical Biochemistry Volume 395, Issue 1, 1 Dec. 2009, Pages 8-15 and Analytical Biochemistry Volume 410, 2011, Pages 304-306) to cells from GENEAe020-A cell line (https://hpscreg.eu/cell-line/GENEAe020-A).
Compounds were tested for the effect of mutant HTT levels in Huntington patient human cells (GENEAe020-A cell line) using Homogeneous Time Resolved Fluorescence (HTRF) directed towards mutant HTT protein (mHTT). The GENEAe020-A cell line was derived by Genea Biocells from human blastocysts of HD donors. After assessing viability, cells were plated into 384 well collagen coated plates in growth media. Once cells adhered, media was removed and test compounds dissolved in DMSO were diluted with buffer solution and added to the adherent cells. Controls included experiments with no cells, DMSO with no compound, and Hsp90 inhibitor control. Cells were incubated with compounds and controls for 48 hours. Then, the cells were lysed and transferred to an assay plate containing HTRF labeled monoclonal antibodies developed by Paul Patterson (Ko et al., Brain Research Bulletin, Volume 56, Numbers 3 and 4, 2001, Pages 319-329) which recognize specific areas of the HTT protein. The terbium labeled “donor” antibody (2B7) binds to the N-terminus of the HTT protein and the Alexa488 labeled “acceptor” antibody (MW1) is specific for the polyglutamine region of the protein. Binding of the acceptor labeled antibody is more efficient for the extended polyglutamine repeats of mutant HTT protein which translates into a signal boost which enables the specific measurement of mutant HTT protein level. The HTRF donor and acceptor detection reagents were incubated with the cell lysate and the ratio between the signals of the two fluorophores is indicative of the relative quantities of mHTT.
`Cc1cn2nc(-c3nc4sc([C@H]5CCNC[C@H]5F)cc4c(=O)[nH]3)cc(C)c2n1` (racemic) [Example 2, 2-(2,8-Dimethylimidazo[1,2-b]pyridazin-6-yl)-6-[(3SR,4SR)-3-fluoro-4-piperidyl]-3H-thieno[2,3-d]pyrimidin-4-one]: the EC50 stood at 205 nM.

For `Cc1cn2nc(-c3nc4sc(C5CCNCC5)cc4c(=O)[nH]3)cc(C)c2n1` [Example 1, 2-(2,8-Dimethylimidazo[1,2-b]pyridazin-6-yl)-6-(4-piperidyl)-3H-thieno[2,3-d]pyrimidin-4-one hydrogen chloride], the EC50 was 50 nM.

Take `Cc1cn2nc(-c3nc4sc(C5CCNCC5(F)F)cc4c(=O)[nH]3)cc(C)c2n1` (stereo not drawn) [Example 3, 6-(3,3-Difluoro-4-piperidyl)-2-(2,8-dimethylimidazo[1,2-b]pyridazin-6-yl)-3H-thieno[2,3-d]pyrimidin-4-one]: the EC50 is 2270 nM.

Take `Cc1cn2nc(-c3nc4sc(OC5CNC5)cc4c(=O)[nH]3)cc(C)c2n1` [Example 4, 6-(Azetidin-3-yloxy)-2-(2,8-dimethylimidazo[1,2-b]pyridazin-6-yl)-3H-thieno[2,3-d]pyrimidin-4-one]: it took 4700 nM to reach a half-maximal effect (EC50).

The molecule `Cc1cn2nc(-c3nc4sc(OC5CCNCC5)cc4c(=O)[nH]3)cc(C)c2n1` [Example 5, 2-(2,8-Dimethylimidazo[1,2-b]pyridazin-6-yl)-6-(4-piperidyloxy)-3H-thieno[2,3-d]pyrimidin-4-one] had a half-maximal effective concentration (EC50) of 282 nM.

In turn, `Cc1cn2nc(-c3nc4sc(C5CCNC6(CC6)C5)cc4c(=O)[nH]3)cc(C)c2n1` (stereo not drawn) [Example 6, 6-(4-Azaspiro[2.5]octan-7-yl)-2-(2,8-dimethylimidazo[1,2-b]pyridazin-6-yl)-3H-thieno[2,3-d]pyrimidin-4-one] returned a half-maximal effective concentration (EC50) of 203 nM.
